{
  "source": "patent US10772884B2",
  "about": "“Sulphate salts of N-(3-(4-(3-(diisobutylamino)propyl)piperazin-1-yl)propyl)-1H-benzo[d]imidazol-2-amine, preparation thereof and use of the same” (ALZPROTECT, priority 2012, dated 2020)",
  "key": {"[1]": {"assay": "salt formation results (physical form)", "type": "physicochemical", "conditions": "Acid eq. added 0", "procedure": "The hydrochloride, hydrobromide, acetate, tartrate, fumarate, malate, oxalate and sulphate salts of N-(3-(4-(3-(diisobutylamino)propyl)piperazin-1-yl)propyl)-1H-benzo[d]imidazol-2-amine were prepared according to procedures similar to those described in the previous examples or standard salt formation methods well known in the art."}, "[2]": {"assay": "long term stability (oxidation) in solid state", "type": "physicochemical", "conditions": "oxidation at the piperazine ring"}},
  "data": [
    {"smiles": "CC(C)CN(CCCN1CCN(CCCNc2nc3ccccc3[nH]2)CC1)CC(C)C", "note": "[Free base, N-(3-(4-(3-(diisobutylamino)propyl)piperazin-1-yl)propyl)-1H-benzo[d]imidazol-2-amine]", "values": [
      {"measurement": "Physical form", "setting": "[1]", "value": "Amorphous powder"},
      {"measurement": "long term stability", "setting": "[2]", "value": "long term stability issues"}
    ]}
  ]
}
